“And” between values parts separate entries of the source, which are not always exact repeats. Equal entries are not always repeated. Where two headings read alike, the source gives them in different places.
Assays:
[1] = target: T1, wild-type human STING LBD (hSTINGwt 138-379) (Homo sapiens, UniProt Q86WV6, H232R); assay: Isothermal titration calorimetry (ITC), reverse titration; format: binding
T1 construct: SUMO (N, cleaved yes); made in house; host or cells: Escherichia coli BL21 (DE3)
Method: Escherichia coli BL21 (DE3) (Thermo Scientific EC0114) was transformed with a pET28a plasmid (Genscript) harbouring the codon-optimized sequence of SUMO-hSTINGwt (aa138-379). Transformed BL21 cells were inoculated into LB medium (50 µg ml^−1 kanamycin) and incubated at 180 rpm, 37 °C overnight. The overnight culture was then diluted (1:100 dilution) in 2× YT medium (50 µg ml^−1 kanamycin) and incubated at 180 rpm, 37 °C until optical density at 600 nm (OD600) reached 0.6 (approximately 3 h). The bacterial culture was then cooled to 16 °C, induced with 0.5 mM isopropyl 1-thio-D-galactopyranoside and incubated overnight at 180 rpm, 16 °C. The bacterial cells were pelleted at 4,000g for 30 min, resuspended in 20 ml of lysis buffer (25 mM HEPES pH 7.5, 150 mM NaCl, 20 mM imidazole and 2 mM TCEP supplied with 2 tablets of cOmplete mini EDTA-free protease inhibitors) and disrupted by sonication on ice. The total lysate was clarified by centrifugation at 22,000g for 30 min. The supernatant was collected and filtered through a 0.45-µm filter (Millipore SLHAR33SS). The clarified lysate was then incubated on a roller with 10 ml bed volume of Ni-NTA resin (Thermo Scientific 88223) at 4 °C for 1 h. The Ni-NTA resin was then packed in a column, flushed with 20 ml of wash buffer (25 mM HEPES pH 7.5, 150 mM NaCl and 20 mM imidazole) and eluted with 40 ml of elution buffer (25 mM HEPES pH 8.0, 150 mM NaCl and 250 mM imidazole). The eluted protein was concentrated to approximately 5 ml (Millipore Amicon 10 kDa molecular weight cut-off (MWCO)) and buffer-exchanged into storage buffer (25 mM HEPES pH 7.5 and 150 mM NaCl). TCEP was then added to a final concentration of 2 mM, and 250 units of SUMO protease (Merck SAE0067) were added. The cleavage reaction mixture was left to stand at 4 °C overnight until LC–MS analysis indicated the completion of the cleavage reaction. The cleavage mixture was incubated with 10 ml bed volume of Ni-NTA resin on a roller at 4 °C for 1 h and packed in a disposable column. The flowthrough was collected, and the resin was further flushed with 20 ml of wash buffer. The eluted fractions were combined, concentrated and further purified by size-exclusion chromatography (Cytiva, Superdex 200 Increase 10/300 GL). The purified protein in storage buffer was concentrated to 330 µM (dimer concentration) as determined by bicinchoninic acid (BCA) assay, aliquoted, flash-frozen in liquid nitrogen and stored at −80 °C for future use.
The binding constants of purified dimers were measured by ITC (Malvern Panalytical AutoITC200) in a reverse-titration format. Stock DMSO solutions of each dimer were dissolved in titration buffer (25 mM HEPES pH 7.5 and 150 mM NaCl) to a final concentration of 25 µM and added to the titration cell. The syringe was filled with 250 µM of purified STING in a matching buffer. Titration was performed at 25 °C with the following parameters: 750 rpm stirring, 0.2 µl initial injection followed by 2-µl injections of the […] every 120 s. Titration of STING protein into blank buffer was separately performed and subtracted from the raw data before the analysis. The background-subtracted titration curves were fitted with the built-in Origin software using the standard one-site model.
Extended Data Fig. 2 Isothermal titration calorimetry (ITC) data for binding constant measurements. Purified hSTINGwt138-379 (250 μM of homodimer) was titrated into each dimer (25 μM) dissolved in a matching buffer (25 mM HEPES pH 7.5, 150 mM NaCl) at 25 °C and 750 rpm stirring. Binding constants were reported as the average from duplicate measurements.

[2] = tested on: THP-1 Lucia ISG cells (interferon pathway); assay: Potency test of purified dimers on THP-1 Lucia ISG reporter cells; format: cell-based, human; settings: for Raw readings: replicates 1-3
Method: Cells were pelleted (150g, 10 min) and resuspended in the growth medium (40% conditioned) at a density of 1 × 10^6 cells ml^−1. The cell suspension was dispensed (50 µl each well) into a lidded white 96-well plate (BrandTech 781665). Test compounds or DMSO control were diluted in the growth medium and sterilized by filtering through 0.22-µm polyethersulfone (PES) membranes (Merck SLGP033RS). […] Upon cooling down to room temperature, 50 µl of reconstituted luciferase substrate (InvivoGen QUANTI-Luc) was added to each well via the injector of the plate reader (Molecular Devices SpectraMax i3x), and the luminescence output was recorded (4 s delay, 0.1 s integration). Raw signals were divided by the averaged signal of the DMSO-treated control wells and reported in relative luminescence unit (RLU). The dose–response curve of each replicate was fitted individually using the standard 4PL model (GraphPad Prism). The EC50 value of each compound was averaged from three independent experiments and reported as mean ± s.e.m.

THP-1 cells = assay: Dilution limits of N1/E4 combination to activate THP-1 cells (IFN-β ELISA); settings: IFN-β secretion, 6 h, single component
[3] = target: the molecule itself; assay: crystal structure; STING LBD (247 µM) with compound D5 (2.2 mM), sitting drops, 20 °C; 2.31 Å
[4] = substrate: COc1cc2sc(C(=O)CCC(=O)O)cc2cc1SCO[C@@H]1O[C@H](C(=O)O)[C@@H](O)[C@H](O)[C@H]1O; assay: Michaelis–Menten kinetics of β-GlcA-N1 cleavage; format: biochemical, human; settings: other: 37 °C, 0.2 M sodium acetate pH 4.5, 67 nM enzyme
Method: Human β-glucuronidase (AcroBiosystems BEB-H52H3) was reconstituted in deionized water to a concentration of 1 mg ml^−1. The enzyme stock solution was further diluted in assay buffer (0.2 M acetate pH 4.5) to 10 μg ml^−1 (134 nM). β-GlcA-N1 (50 mM DMSO stock) was twofold serially diluted in assay buffer from 5 to 0.078 mM. The enzyme solution and diluted β-GlcA-N1 were incubated in a transparent 96-well plate and incubated at 37 °C until thermo equilibrium was reached. Then, 100 µl of β-GlcA-N1 at various concentrations was mixed with 100 µl of β-glucuronidase using a multichannel pipette, resulting in the following initial condition: [β-GlcA-N1] = 2.5, 1.25, 0.62, 0.31, 0.16, 0.08 and 0.04 mM; [β-glucuronidase] = 67 nM; 5% DMSO (v/v). The reactions were incubated at 37 °C. At 30-min and 60-min timepoints, a 50-µl portion was withdrawn from each reaction mixture and mixed with 50 µl of quenching buffer (1 M sodium carbonate, 1 mM TCEP). The concentration of liberated N1 was determined by comparing the absorbance of each quenched reaction at 410 nm to a calibration curve of purified N1. Reaction velocities were calculated from the slopes of [N1] versus time plots. The velocity versus [β-GlcA-N1] plot was then fitted with the standard Michaelis–Menten kinetic model (GraphPad Prism).

T1 sequence (Q86WV6 138-379 H232R): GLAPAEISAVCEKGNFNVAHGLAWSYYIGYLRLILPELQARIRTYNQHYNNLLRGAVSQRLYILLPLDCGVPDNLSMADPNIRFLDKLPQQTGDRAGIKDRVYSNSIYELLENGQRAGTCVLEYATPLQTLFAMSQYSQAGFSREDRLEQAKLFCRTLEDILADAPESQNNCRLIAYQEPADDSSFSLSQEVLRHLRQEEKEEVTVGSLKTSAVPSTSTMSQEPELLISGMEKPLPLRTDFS

With COc1cc2sc(C(=O)CCC(=O)O)cc2cc1CSCc1cc2cc(C(=O)CCC(=O)O)sc2cc1OC [Compound D7] the Kd ([1]; 25 °C, average of duplicate measurements, read-out: Kd hSTINGwt (binding constant, ITC)) was 12 nM, the Kd ([1]; ITC run _01, read-out: Kd) was 15 nM and the Kd ([1]; ITC run _02, read-out: Kd) was 8 nM. The Raw readings ([2]; Conc 0.508053 nM) was 1113 RLU and 627 RLU and 644 RLU, the Raw readings ([2]; Conc 1.52416 nM) was 1094 RLU and 992 RLU and 1053 RLU and the Raw readings ([2]; Conc 4.57247 nM) was 783 RLU and 1083 RLU and 911 RLU. For the same molecule, the Raw readings ([2]; Conc 13.7174 nM) was 1811 RLU and 3669 RLU and 2075 RLU, the Raw readings ([2]; Conc 41.1523 nM) was 26401 RLU and 56159 RLU and 31852 RLU and the Raw readings ([2]; Conc 123.457 nM) was 95964 RLU and 153788 RLU and 83328 RLU. For the same molecule, the Raw readings ([2]; Conc 370.37 nM) was 127337 RLU and 208679 RLU and 128863 RLU, the Raw readings ([2]; Conc 1111.11 nM) was 148790 RLU and 255878 RLU and 161073 RLU and the Raw readings ([2]; Conc 3333.33 nM) was 168239 RLU and 288236 RLU and 165803 RLU. For the same molecule, the Raw readings ([2]; Conc 10000 nM) was 170045 RLU and 271936 RLU and 154582 RLU, the fold induction at 0.00152416 µM ([2]; Homo sapiens, THP1-Lucia ISG, 24 h, Concentration 1.52416 nM, three replicates, read-out: Processed reporter response per replicate (reading relative to DMSO)) was 1.5 and the fold induction at 0.00457247 µM ([2]; Homo sapiens, THP1-Lucia ISG, 24 h, Concentration 4.57247 nM, three replicates, read-out: Processed reporter response per replicate (reading relative to DMSO)) was 1.07. The fold induction at 0.0137174 µM ([2]; Homo sapiens, THP1-Lucia ISG, 24 h, Concentration 13.7174 nM, three replicates, read-out: Processed reporter response per replicate (reading relative to DMSO)) was 2.48, the fold induction at 0.0411523 µM ([2]; Homo sapiens, THP1-Lucia ISG, 24 h, Concentration 41.1523 nM, three replicates, read-out: Processed reporter response per replicate (reading relative to DMSO)) was 36.1 and the fold induction at 0.123457 µM ([2]; Homo sapiens, THP1-Lucia ISG, 24 h, Concentration 123.457 nM, three replicates, read-out: Processed reporter response per replicate (reading relative to DMSO)) was 131. For the same molecule, the fold induction at 0.37037 µM ([2]; Homo sapiens, THP1-Lucia ISG, 24 h, Concentration 370.37 nM, three replicates, read-out: Processed reporter response per replicate (reading relative to DMSO)) was 174, the fold induction at 1.11111 µM ([2]; Homo sapiens, THP1-Lucia ISG, 24 h, Concentration 1111.11 nM, three replicates, read-out: Processed reporter response per replicate (reading relative to DMSO)) was 204 and the fold induction at 3.33333 µM ([2]; Homo sapiens, THP1-Lucia ISG, 24 h, Concentration 3333.33 nM, three replicates, read-out: Processed reporter response per replicate (reading relative to DMSO)) was 230. It also gave a fold induction at 10 µM ([2]; Homo sapiens, THP1-Lucia ISG, 24 h, Concentration 10000 nM, three replicates, read-out: Processed reporter response per replicate (reading relative to DMSO)) of 233 and an EC50 ([2]; Homo sapiens, THP1-Lucia ISG, 24 h, three biological replicates, mean ± s.d., read-out: EC50 THP-1) of 119 ± 2 nM.

With COc1cc2sc(C(=O)CCC(=O)O)cc2cc1S [Compound N1] the “concentration up to which no STING activation was shown (alone)” value (THP-1 cells) was > 64 µM.

B1: R232-STING 138-379 (ligand-binding domain of human STING) (domain or fragment, UniProt Q86WV6 138-379, looked up)
chain: GLAPAEISAVCEKGNFNVAHGLAWSYYIGYLRLILPELQARIRTYNQHYNNLLRGAVSQRLYILLPLDCGVPDNLSMADPNIRFLDKLPQQTGDHAGIKDRVYSNSIYELLENGQRAGTCVLEYATPLQTLFAMSQYSQAGFSREDRLEQAKLFCRTLEDILADAPESQNNCRLIAYQEPADDSSFSLSQEVLRHLRQEEKEEVTVGSLKTSAVPSTSTMSQEPELLISGMEKPLPLRTDFS
notes: chains A and B form the dimer; also called STING LBD; hSTING LBD; source: E. coli BL21(DE3), purified (Ni-NTA, TEV cleavage, reverse Ni-NTA, gel filtration)
B1: binds [3].

B2: human β-glucuronidase (Homo sapiens) (protein)
chain: LQGGMLYPQESPSRECKELDGLWSFRADFSDNRRRGFEEQWYRRPLWESGPTVDMPVPSSFNDISQDWRLRHFVGWVWYEREVILPERWTQDLRTRVVLRIGSAHSYAIVWVNGVDTLEHEGGYLPFEADISNLVQVGPLPSRLRITIAINNTLTPTTLPPGTIQYLTDTSKYPKGYFVQNTYFDFFNYAGLQRSVLLYTTPTTYIDDITVTTSVEQDSGLVNYQISVKGSNLFKLEVRLLDAENKVVANGTGTQGQLKVPGVSLWWPYLMHERPAYLYSLEVQLTAQTSLGPVSDFYTLPVGIRTVAVTKSQFLINGKPFYFHGVNKHEDADIRGKGFDWPLLVKDFNLLRWLGANAFRTSHYPYAEEVMQMCDRYGIVVIDECPGVGLALPQFFNNVSLHHHMQVMEEVVRRDKNHPAVVMWSVANEPASHLESAGYYLKMVIAHTKSLDPSRPVTFVSNSNYAADKGAPYVDVICLNSYYSWYHDYGHLELIQLQLATQFENWYKKYQKPIIQSEYGAETIAGFHQDPPLMFTEEYQKSLLEQYHLGLDQKRRKYVVGELIWNFADFMTEQSPTRVLGNKKGIFTRQRQPKSAAFLLRERYWKIANETRYPHSVAKSQCLENSLFT
notes: purchased AcroBiosystems BEB-H52H3
With B2 the Km [4] was 319 µM, the kcat [4] was 0.48 s⁻¹ and the kcat/Km [4] was 1500 M⁻¹ s⁻¹.

— PMC12669040, “Tumour-specific STING agonist synthesis via a two-component prodrug system” (Nature Chemistry, 2025)
